Measurements: US20230012368A1 (Hoffmann-La Roche Inc., priority 2018, published 2023)
Counter-ions that a name gives are not always drawn. Like-named read-outs stand apart in the source and are kept apart here.

Tested on: Acinetobacter baumannii ATCC 17978
Test: Antimicrobial susceptibility testing: 90% growth inhibitory concentration (IC90) determination
Assay type: cell-based
Conditions: 90% growth inhibitory concentration, Acinetobacter baumannii ATCC17978, Iso-Sensitest broth, OD 600 nm over 16h, read-out: ATCC17978 IC90
In short: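 Compounds serially twofold diluted (e.g. 50 to 0.097 μM final) in Iso-Sensitest broth, inoculated at ~5×10^(5) CFU/ml, incubated at 35±2° C. OD600 read every 20 minutes over 16h. IC90 taken as concentration inhibiting 90% of growth during logarithmic phase.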

[1] = Acinetobacter baumannii, ATCC17978, 16 h

Row | Compound | IC90 [1] | IC90
1 | CCc1cc(Nc2nccn3c(-c4ccc(OC)c(F)c4F)cnc23)ccc1C(=O)N[C@@H](CN)c1ccccc1 [Example 321, N-[(1R)-2-amino-1-phenylethyl]-4-[[3-(2,3-difluoro-4-methoxyphenyl)imidazo[1,2-a]pyrazin-8-yl]amino]-2-ethylbenzamide; hydrochloride] |  | 4000 nM
2 | COc1ccc(-c2cnc3c(Nc4ccc(C(=O)N(C)CCN)c(C)c4)nccn23)cc1 [Example 32, N-(2-aminoethyl)-4-((3-(4-methoxyphenyl)imidazo [1,2-a]pyrazin-8-yl)amino)-N,2-dimethylbenzamide] | 1700 nM | 
3 | COc1ccc(-c2cnc3c(Nc4ccc(C(=O)N(CCN5CCNCC5)CC(F)F)c(C)c4)nccn23)cc1F [Example 175, N-(2,2-difluoroethyl)-4-[[3-(3-fluoro-4-methoxyphenyl)imidazo[1,2-a]pyrazin-8-yl]amino]-2-methyl-N-(2-piperazin-1-ylethyl)benzamide;hydrochlo-ride] | 2300 nM | 
4 | COc1ccc(-c2cnc3c(Nc4ccc(C(=O)NCC5OCC(N)CO5)c(C)c4)nccn23)cc1 (centres unmarked) [Example 206, N-[(5-amino-1,3-dioxan-2-yl)methyl]-4-[[3-(4-methoxyphenyl)imidazo[1,2-a]pyrazin-8-yl]amino]-2-methylbenzamide] | 540 nM | 
5 | COc1ccc(-c2cnc3c(Nc4ccc(C(=O)NCC5CCN(C(=N)N)CC5)c(C)c4)nccn23)cc1Cl [Example 82, N-((1-carbamimidoyl-piperidin-4-yl)methyl)-4-((3-(3-chloro-4-methoxyphenyl)imidazo [1,2-a]pyrazin-8-yl)amino)-2-methylbenzamide] | 270 nM | 
6 | COc1ccc(-c2cnc3c(Nc4ccc(C(=O)N(C)CCN(C)C)cc4)nccn23)cc1Cl [Example 28, 4-((3-(3-chloro-4-methoxyphenyl)imidazo [1,2-a]pyrazin-8-yl)amino)-N-(2-(dimethylamino)ethyl)-N-methylbenzamide] | 3600 nM | 
7 | COc1ccc(-c2cnc3c(Nc4ccc(C(=O)NCCCN5CCN(C)C(=O)C5)c(C)c4)nccn23)c(F)c1F [Example 66, 4-((3-(2,3-difluoro-4-methoxyphenyl)imidazo [1,2-a]pyrazin-8-yl)amino)-2-methyl-N-(3-(4-methyl-3-oxopiperazin-1-yl)propyl)benzamide] | 310 nM | 
8 | COc1ccc(-c2cnc3c(Nc4ccc(C(=O)N(C)CC5CCOC5)c(C)c4)nccn23)cc1F (centres unmarked) [Example 71, 4-((3-(3-fluoro-4-methoxyphenyl)imidazo [1,2-a]pyrazin-8-yl)amino)-N,2-dimethyl-N-((tetrahydrofuran-3-yl)methyl)benzamide] | 1100 nM | 
9 | COc1ccc(-c2cnc3c(Nc4ccc(C(=O)NCCCN5CCNC(=O)C5)c(C)c4)nccn23)c(F)c1F [Example 65, 4-((3-(2,3-difluoro-4-methoxyphenyl)imidazo [1,2-a]pyrazin-8-yl)amino)-2-methyl-N-(3-(3-oxopiperazin-1-yl)propyl)benzamide] | 120 nM | 
10 | COc1ccc(-c2cnc3c(Nc4ccc(C(=O)NCCCCCNC(=O)OC(C)(C)C)c(C)c4)nccn23)cc1 [Example 223, tert-butyl N-[5-[[4-[[3-(4-methoxyphenyl)imidazo[1,2-a]pyrazin-8-yl]amino]-2-methylbenzoyl]amino]pentyl] carbamate] | 1100 nM | 
11 | COc1ccc(-c2cnc3c(Nc4ccc(C(=O)NC[C@@H](O)[C@@H](O)[C@H](O)[C@H](O)CO)c(C)c4)nccn23)cc1F [Example 288, 4-[[3-(3-fluoro-4-methoxyphenyl)imidazo[1,2-a]pyrazin-8-yl]amino]-2-methyl-N-[(2R,3R,4R,5R)-2,3,4,5,6-pentahydroxyhexyl]benzamide] | 3000 nM | 
12 | CCc1cc(Nc2nccn3c(-c4ccc(OC)c(F)c4F)cnc23)ccc1C(=O)NC(CCN)C(F)(F)F (centres unmarked) [Example 320, N-(4-amino-1,1,1-trifluorobutan-2-yl)-4-[[3-(2,3-difluoro-4-methoxyphenyl)imidazo[1,2-a]pyrazin-8-yl]amino]-2-ethylbenzamide; hydrochloride] |  | 2700 nM
13 | COc1ccc(-c2cnc3c(Nc4ccc(C(=O)NCC(=O)N5CCC(O)CC5)c(C)c4)nccn23)cc1 [Example 20, N-(2-(4-hydroxypiperidin-1-yl)-2-oxoethyl)-4-((3-(4-methoxyphenyl)imidazo [1,2-a]pyrazin-8-yl)amino)-2-methylbenzamide] | 650 nM | 
14 | COc1ccc(-c2cnc3c(Nc4ccc(C(=O)N(C)CCO)cc4)nccn23)cc1 [Example 235, N-(2-hydroxyethyl)-4-[[3-(4-methoxyphenyl)imidazo[1,2-a]pyrazin-8-yl]amino]-N-methylbenzamide] | 1000 nM | 
15 | CCc1cc(Nc2nccn3c(-c4ccc(OC)c(F)c4F)cnc23)ccc1C(=O)NCCCNC(=O)[C@@H](N)CNC(=N)N [Example 359, N-[3-[[(2S)-2-amino-3-carbamimidamidopropanoyl]amino]propyl]-4-[[3-(2,3-difluoro-4-methoxyphenyl)imidazo[1,2-a]pyrazin-8-yl]amino]-2-ethylbenzamide] | 60 nM | 
16 | COc1ccc(-c2cnc3c(Nc4ccc5c(c4)CCN(CCN(C)C)C5=O)nccn23)cc1F [Example 116, 2-[2-(dimethylamino)ethyl]-6-[[3-(3-fluoro-4-methoxy-phenyl)imidazo[1,2-a]pyrazin-8-yl]amino]-3,4-dihydroisoquinolin-1-one] | 940 nM | 
17 | CCc1cc(Nc2nccn3c(-c4ccc(OC(F)F)c(F)c4F)cnc23)ccc1C(=O)NCCCCCN [Example 96, N-(5-aminopentyl)-4-((3-(4-(difluoromethoxy)-2,3-difluorophenyl)imidazo [1,2-a]pyrazin-8-yl)amino)-2-ethylbenzamide hydrochloride] | 70 nM | 
18 | Cc1cc(Nc2nccn3c(-c4ccc(OC(F)F)cc4)cnc23)ccc1C(=O)N1CCC(C(=O)NC[C@H](O)[C@@H](O)[C@H](O)[C@H](O)CO)CC1 [Example 306, 1-[4-[[3-[4-(difluoromethoxy)phenyl]im-idazo[1,2-a]pyrazin-8-yl]amino]-2-methylbenzoyl]-N-[(2S,3R,4R,5R)-2,3,4,5,6-pentahydroxyhexyl]piperidine-4-carboxamide] | 590 nM | 
19 | COc1ccc(-c2cnc3c(Nc4ccc(C(=O)NCC5CNCCO5)c(C)c4)nccn23)cc1F (centres unmarked) [Example 232, 4-[[3-(3-fluoro-4-methoxyphenyl)imidazo[1,2-a]pyrazin-8-yl]amino]-2-methyl-N-(morpholin-2-ylmethyl)benzamide; hydrochlo-ride] | 1300 nM | 

Further lines, with some results ahead:

Row | IC90 [1] | Compound | IC90
20 | 880 nM | CCc1cc(Nc2nccn3c(-c4ccc(Oc5nccs5)c(F)c4F)cnc23)ccc1C(=O)NCCCN [Example 482, #N!-(3-aminopropyl)-4-[[3-[2,3-difluoro-4-(1,3-thiazol-2-yloxy)phenyl]imidazo[1,2-a]pyrazin-8-yl]amino]-2-ethylbenzamide] | 
21 | 140 nM | COc1ccc(-c2cnc3c(Nc4ccc(C(=O)N[C@H](C)CNC(=N)C(C)C)c(C)c4)nccn23)c(F)c1F [Example 498, 4-[[3-(2,3-difluoro-4-methoxyphenyl)imidazo[1,2-a]pyrazin-8-yl]amino]-2-methyl-#N!-[(2#R!)-1-(2-methylpropanimidoylamino)propan-2-yl]benzamide] | 
22 | 470 nM | CCc1cc(Nc2nccn3c(-c4ccc(Oc5ncccn5)c(F)c4F)cnc23)ccc1C(=O)NCC1CCNCC1 [Example 548, 4-((3-(2,3-difluoro-4-(pyrimidin-2-yloxy)phenyl)imidazo[1,2-a]pyrazin-8-yl)amino)-2-ethyl-N-(piperidin-4-ylmethyl)benzamide formate] | 
23 | 600 nM | CCc1cc(Nc2nccn3c(-c4ccc(OC)c(F)c4F)cnc23)ccc1C(=O)NCC(C)(C)N [Example 524, N-(2-amino-2-methylpropyl)-4-((3-(2,3-difluoro-4-methoxyphenyl)imidazo[1,2-a]pyrazin-8-yl)amino)-2-ethylbenzamide hydrochloride] | 
24 | 340 nM | COc1ccc(-c2cnc3c(Nc4ccc(C(=O)NCCCN)c(CCF)c4)nccn23)c(F)c1F [Example 392, N-(3-aminopropyl)-4-[[3-(2,3-difluoro-4-methoxy-phenyl)imidazo[1,2-a]pyrazin-8-yl]amino]-2-(2-fluoroethyl)benzamide] | 
25 | 500 nM | CCc1cc(Nc2nccn3c(-c4ccc(Oc5ccncn5)c(F)c4F)cnc23)ccc1C(=O)NCCNC(=O)CCN [Example 432, N-[2-(3-aminopropanoylamino)ethyl]-4-[[3-(2,3-difluoro-4-pyrimidin-4-yloxy-phenyl)imidazo[1,2-a]pyrazin-8-yl]amino]-2-ethyl-benzamide; formic acid] | 
26 | 200 nM | CCc1cc(Nc2nccn3c(-c4ccc(OC)c(F)c4F)cnc23)ccc1C(=O)NCCNC(=O)CC(O)CN (centres unmarked) [Example 376, N-[2-[(4-amino-3-hydroxybutanoyl)amino]ethyl]-4-[[3-(2,3-difluoro-4-methoxyphenyl)imidazo[1,2-a]pyrazin-8-yl]amino]-2-ethylbenzamide] | 
27 | 450 nM | CCc1cc(Nc2nccn3c(-c4ccc(OC(F)F)c(F)c4F)cnc23)ccc1C(=O)NCC1(CO)COC(=O)N1 (centres unmarked) [Example 409, 4-((3-(4-(difluoromethoxy)-2,3-difluorophenyl)imidazo[1,2-a]pyrazin-8-yl)amino)-2-ethyl-N-((4-(hydroxymethyl)-2-oxooxazolidin-4-yl)methyl)benzamide] | 
28 | 44 nM | COc1ccc(-c2cnc3c(Nc4ccc(C(=O)NCCCCCN)c(Cl)c4)nccn23)c(F)c1F [Example 492, N-(5-aminopentyl)-2-chloro-4-((3-(2,3-difluoro-4-methoxyphenyl)imidazo[1,2-a]pyrazin-8-yl)amino)benzamide hydrochloride] | 
29 | 110 nM | COc1ccc(-c2cnc3c(Nc4ccc(C(=O)N[C@H](C)CNC(=N)C(C)C)c(Cl)c4)nccn23)c(F)c1F [Example 509, (R)-2-chloro-4-((3-(2,3-difluoro-4-methoxyphenyl)imidazo[1,2-a]pyrazin-8-yl)amino)-N-(1-isobutyrimidamidopropan-2-yl)benzamide] | 
